Measurements reported in patent publication US12540120B2, “Herbicidal compounds” (SYNGENTA CROP PROTECTION AG, priority 2019, dated 2026).

How the values were obtained:
Type in all cases: in vivo
[1] = test system: Amaranthus retoflexus (AMARE); test: B2 Post-Emergence Efficacy—Test 2; details: post-emergence application, 250 g/ha, evaluated after 13 days (Test 2)
Method in brief: (§1)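 Pot-grown plants, sown in standard soil and raised 8 days in a glasshouse (24/16 °C day/night, 14 h light, 65% humidity), were sprayed post-emergence at 250 g/ha from acetone/water (50:50) with 0.5% Tween 20. Percentage damage was scored 13 days later on a five-point scale (5=80-100%; 1=0-19%).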

[2] = test system: Echinochloa crus-galli (ECHCG); test: B2 Post-Emergence Efficacy—Test 2; details: post-emergence application, 250 g/ha, evaluated after 13 days (Test 2)
Method in brief: as §1

[3] = test system: Ipomoea hederacea (IPOHE); test: B2 Post-Emergence Efficacy—Test 2; details: post-emergence application, 250 g/ha, evaluated after 13 days (Test 2)
Method in brief: as §1

Lolium perenne (LOLPE) [4] = test: B2 Post-Emergence Efficacy—Test 2; details: post-emergence application, 250 g/ha, evaluated after 13 days (Test 2)
Method in brief: as §1

Setaria faberi (SETFA) [5] = test: B2 Post-Emergence Efficacy—Test 2; details: post-emergence application, 250 g/ha, evaluated after 13 days (Test 2)
Method in brief: as §1

Solanum nigrum (SOLNI) [6] = test: B2 Post-Emergence Efficacy—Test 2; details: post-emergence application, 250 g/ha, evaluated after 13 days (Test 2)
Method in brief: as §1

[7] = test system: Amaranthus retoflexus (AMARE); test: B5 Pre-Emergence Efficacy—Test 2; details: 250 g/ha, evaluated after 13 days
Method in brief: (§2)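 Pre-emergence spray, 250 g/ha, acetone/water 50:50 + 0.5% Tween 20, applied 1 day post-sowing. Glasshouse 24/16 °C, 14 h light, 65% RH. Damage read at 13 d; 5-point scale (5=80-100%, 1=0-19%).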

Solanum nigrum (SOLNI) [8] = test: B5 Pre-Emergence Efficacy—Test 2; details: 250 g/ha, evaluated after 13 days
Method in brief: as §2

[9] = test system: Echinochloa crus-galli (ECHCG); test: B5 Pre-Emergence Efficacy—Test 2; parameters: key: 5-point scale: 5=80-100%, 4=60-79%, 3=40-59%, 2=20-39%, 1=0-19% damage; details: 250 g/ha, evaluated after 13 days
Method in brief: as §2

[10] = test system: Ipomoea hederacea (IPOHE); test: B5 Pre-Emergence Efficacy—Test 2; parameters: key: 5-point scale: 5=80-100%, 4=60-79%, 3=40-59%, 2=20-39%, 1=0-19% damage; details: 250 g/ha, evaluated after 13 days
Method in brief: as §2

Lolium perenne (LOLPE) [11] = test: B5 Pre-Emergence Efficacy—Test 2; parameters: key: 5-point scale: 5=80-100%, 4=60-79%, 3=40-59%, 2=20-39%, 1=0-19% damage; details: 250 g/ha, evaluated after 13 days
Method in brief: as §2

Setaria faberi (SETFA) [12] = test: B5 Pre-Emergence Efficacy—Test 2; parameters: key: 5-point scale: 5=80-100%, 4=60-79%, 3=40-59%, 2=20-39%, 1=0-19% damage; details: 250 g/ha, evaluated after 13 days
Method in brief: as §2

In the case of `Cc1nc(-c2ccc(CCc3c(Cl)ccc(F)c3-c3c(O)c(C)nn(C)c3=O)cc2)cs1` [Compound A-1.383], the “percentage damage caused to the plant, five point scale, AMARE” value (shortened to “percentage damage caused … AMARE”) [1] is reported as 5 (5=80-100%), the “percentage damage caused to the plant, five point scale, ECHCG” value (from here on “percentage damage caused … ECHCG”) [2] is reported as 5 (5=80-100%) and the “percentage damage caused to the plant, five point scale, IPOHE” value (“percentage damage caused … IPOHE” for short) [3] is reported as 5 (5=80-100%). For the same molecule, the “percentage damage caused to the plant, five point scale, LOLPE” value (“percentage damage caused … LOLPE” for short) (Lolium perenne (LOLPE) [4]) was 5 (5=80-100%), the “percentage damage caused to the plant, five point scale, SETFA” value (“percentage damage caused … SETFA” for short) (Setaria faberi (SETFA) [5]) was 5 (5=80-100%) and the “percentage damage caused to the plant, five point scale, SOLNI” value (“percentage damage caused … SOLNI” for short) (Solanum nigrum (SOLNI) [6]) was 5 (5=80-100%). The “Control of weed species after pre-emergence application, AMARE (percentage damage, five point scale)” value [7] was 5 (5=80-100%), the “Control of weed species after pre-emergence application, SOLNI (percentage damage, five point scale)” value (Solanum nigrum (SOLNI) [8]) was 5 (5=80-100%) and the “Control of weed species after pre-emergence application, ECHCG (percentage damage, five point scale)” value [9] was 4 (4=60-79%). The “Control of weed species after pre-emergence application, IPOHE (percentage damage, five point scale)” value [10] was 5 (5=80-100%), the “Control of weed species after pre-emergence application, LOLPE (percentage damage, five point scale)” value (Lolium perenne (LOLPE) [11]) was 3 (3=40-59%) and the “Control of weed species after pre-emergence application, SETFA (percentage damage, five point scale)” value (Setaria faberi (SETFA) [12]) was 4 (4=60-79%).

For `Cc1nn(C)c(=O)c(-c2c(F)ccc(Cl)c2CCc2ccc(-c3cccs3)cc2)c1O` [Compound A-1.384], the “percentage damage caused … AMARE” value [1] was 5 (5=80-100%), the “percentage damage caused … ECHCG” value [2] was 3 (3=40-59%) and the “percentage damage caused … IPOHE” value [3] was 5 (5=80-100%). The “percentage damage caused … LOLPE” value (Lolium perenne (LOLPE) [4]) was 4 (4=60-79%), the “percentage damage caused … SETFA” value (Setaria faberi (SETFA) [5]) was 5 (5=80-100%) and the “percentage damage caused … SOLNI” value (Solanum nigrum (SOLNI) [6]) was 5 (5=80-100%). For the same molecule, the “Control of weed species after pre-emergence application, AMARE (percentage damage, five point scale)” value [7] was 2 (2=20-39%), the “Control of weed species after pre-emergence application, SOLNI (percentage damage, five point scale)” value (Solanum nigrum (SOLNI) [8]) was 1 (1=0-19%) and the “Control of weed species after pre-emergence application, ECHCG (percentage damage, five point scale)” value [9] was 0. For the same molecule, the “Control of weed species after pre-emergence application, IPOHE (percentage damage, five point scale)” value [10] was 2 (2=20-39%), the “Control of weed species after pre-emergence application, LOLPE (percentage damage, five point scale)” value (Lolium perenne (LOLPE) [11]) was 0 and the “Control of weed species after pre-emergence application, SETFA (percentage damage, five point scale)” value (Setaria faberi (SETFA) [12]) was 0.

With `Cc1nn(C)c(=O)c(-c2c(F)ccc(Cl)c2CCc2ccc(-n3cncn3)cc2)c1O` [Compound A-1.385, 4-[3-chloro-6-fluoro-2-[2-[4-(1,2,4-triazol-1-yl)phenyl]ethyl]phenyl]-5-hydroxy-2,6-dimethyl-pyridazin-3-one] the “percentage damage caused … AMARE” value [1] was 5 (5=80-100%), the “percentage damage caused … ECHCG” value [2] was 5 (5=80-100%) and the “percentage damage caused … IPOHE” value [3] was 5 (5=80-100%). The “percentage damage caused … LOLPE” value (Lolium perenne (LOLPE) [4]) was 5 (5=80-100%), the “percentage damage caused … SETFA” value (Setaria faberi (SETFA) [5]) was 5 (5=80-100%) and the “percentage damage caused … SOLNI” value (Solanum nigrum (SOLNI) [6]) was 5 (5=80-100%). The “Control of weed species after pre-emergence application, AMARE (percentage damage, five point scale)” value [7] was 5 (5=80-100%), the “Control of weed species after pre-emergence application, SOLNI (percentage damage, five point scale)” value (Solanum nigrum (SOLNI) [8]) was 5 (5=80-100%) and the “Control of weed species after pre-emergence application, ECHCG (percentage damage, five point scale)” value [9] was 5 (5=80-100%). The “Control of weed species after pre-emergence application, IPOHE (percentage damage, five point scale)” value [10] was 5 (5=80-100%), the “Control of weed species after pre-emergence application, LOLPE (percentage damage, five point scale)” value (Lolium perenne (LOLPE) [11]) was 5 (5=80-100%) and the “Control of weed species after pre-emergence application, SETFA (percentage damage, five point scale)” value (Setaria faberi (SETFA) [12]) was 5 (5=80-100%).

In the case of `Cc1nn(C)c(=O)c(-c2c(F)ccc(Cl)c2/C=C/c2cccc(C#N)c2)c1O` [Compound A-2.030], the “percentage damage caused … AMARE” value [1] is reported as 3 (3=40-59%), the “percentage damage caused … ECHCG” value [2] is reported as 0 and the “percentage damage caused … IPOHE” value [3] is reported as 4 (4=60-79%). The “percentage damage caused … LOLPE” value (Lolium perenne (LOLPE) [4]) was 1 (1=0-19%), the “percentage damage caused … SETFA” value (Setaria faberi (SETFA) [5]) was 0 and the “percentage damage caused … SOLNI” value (Solanum nigrum (SOLNI) [6]) was 4 (4=60-79%). For the same molecule, the “Control of weed species after pre-emergence application, AMARE (percentage damage, five point scale)” value [7] was 0, the “Control of weed species after pre-emergence application, SOLNI (percentage damage, five point scale)” value (Solanum nigrum (SOLNI) [8]) was 0 and the “Control of weed species after pre-emergence application, ECHCG (percentage damage, five point scale)” value [9] was 0. The “Control of weed species after pre-emergence application, IPOHE (percentage damage, five point scale)” value [10] was 0, the “Control of weed species after pre-emergence application, LOLPE (percentage damage, five point scale)” value (Lolium perenne (LOLPE) [11]) was 0 and the “Control of weed species after pre-emergence application, SETFA (percentage damage, five point scale)” value (Setaria faberi (SETFA) [12]) was 0.

`Cc1nn(C)c(=O)c(-c2c(F)ccc(Cl)c2/C=C/c2ccc(O)cc2)c1O` [Compound A-2.037] was tested, and the “percentage damage caused … AMARE” value [1] was 1 (1=0-19%), the “percentage damage caused … ECHCG” value [2] was 2 (2=20-39%) and the “percentage damage caused … IPOHE” value [3] was 2 (2=20-39%). For the same molecule, the “percentage damage caused … LOLPE” value (Lolium perenne (LOLPE) [4]) was 1 (1=0-19%), the “percentage damage caused … SETFA” value (Setaria faberi (SETFA) [5]) was 1 (1=0-19%) and the “percentage damage caused … SOLNI” value (Solanum nigrum (SOLNI) [6]) was 2 (2=20-39%). For the same molecule, the “Control of weed species after pre-emergence application, AMARE (percentage damage, five point scale)” value [7] was 0, the “Control of weed species after pre-emergence application, SOLNI (percentage damage, five point scale)” value (Solanum nigrum (SOLNI) [8]) was 0 and the “Control of weed species after pre-emergence application, ECHCG (percentage damage, five point scale)” value [9] was 0. The “Control of weed species after pre-emergence application, IPOHE (percentage damage, five point scale)” value [10] was 1 (1=0-19%), the “Control of weed species after pre-emergence application, LOLPE (percentage damage, five point scale)” value (Lolium perenne (LOLPE) [11]) was 1 (1=0-19%) and the “Control of weed species after pre-emergence application, SETFA (percentage damage, five point scale)” value (Setaria faberi (SETFA) [12]) was 1 (1=0-19%).

With `CCN(C)C(=O)c1ccc(CCc2c(Cl)ccc(F)c2-c2c(OC(=O)C(C)C)c(C)nn(C)c2=O)cc1F` [Compound A-3.028, [5-[3-Chloro-2-[2-[4-[ethyl(methyl)carbamoyl]-3-fluoro-phenyl]ethyl]-6-fluoro-phenyl]-1,3-dimethyl-6-oxo-pyridazin-4-yl] 2-methylpropanoate] the “percentage damage caused … AMARE” value [1] was 4 (4=60-79%), the “percentage damage caused … ECHCG” value [2] was 5 (5=80-100%) and the “percentage damage caused … IPOHE” value [3] was 5 (5=80-100%). The “percentage damage caused … LOLPE” value (Lolium perenne (LOLPE) [4]) was 5 (5=80-100%), the “percentage damage caused … SETFA” value (Setaria faberi (SETFA) [5]) was 4 (4=60-79%) and the “percentage damage caused … SOLNI” value (Solanum nigrum (SOLNI) [6]) was 5 (5=80-100%). The “Control of weed species after pre-emergence application, AMARE (percentage damage, five point scale)” value [7] was 5 (5=80-100%), the “Control of weed species after pre-emergence application, SOLNI (percentage damage, five point scale)” value (Solanum nigrum (SOLNI) [8]) was 5 (5=80-100%) and the “Control of weed species after pre-emergence application, ECHCG (percentage damage, five point scale)” value [9] was 5 (5=80-100%). The “Control of weed species after pre-emergence application, IPOHE (percentage damage, five point scale)” value [10] was 5 (5=80-100%), the “Control of weed species after pre-emergence application, LOLPE (percentage damage, five point scale)” value (Lolium perenne (LOLPE) [11]) was 5 (5=80-100%) and the “Control of weed species after pre-emergence application, SETFA (percentage damage, five point scale)” value (Setaria faberi (SETFA) [12]) was 5 (5=80-100%).

`Cc1nn(C)c(=O)c(-c2c(F)ccc(Cl)c2CCc2ccccc2C#N)c1OC(=O)C(C)C` [Compound A-3.029] was tested, and the “percentage damage caused … AMARE” value [1] was 4 (4=60-79%), the “percentage damage caused … ECHCG” value [2] was 1 (1=0-19%) and the “percentage damage caused … IPOHE” value [3] was 5 (5=80-100%). The “percentage damage caused … LOLPE” value (Lolium perenne (LOLPE) [4]) was 2 (2=20-39%), the “percentage damage caused … SETFA” value (Setaria faberi (SETFA) [5]) was 2 (2=20-39%) and the “percentage damage caused … SOLNI” value (Solanum nigrum (SOLNI) [6]) was 5 (5=80-100%). The “Control of weed species after pre-emergence application, AMARE (percentage damage, five point scale)” value [7] was 4 (4=60-79%), the “Control of weed species after pre-emergence application, SOLNI (percentage damage, five point scale)” value (Solanum nigrum (SOLNI) [8]) was 5 (5=80-100%) and the “Control of weed species after pre-emergence application, ECHCG (percentage damage, five point scale)” value [9] was 3 (3=40-59%). For the same molecule, the “Control of weed species after pre-emergence application, IPOHE (percentage damage, five point scale)” value [10] was 3 (3=40-59%), the “Control of weed species after pre-emergence application, LOLPE (percentage damage, five point scale)” value (Lolium perenne (LOLPE) [11]) was 2 (2=20-39%) and the “Control of weed species after pre-emergence application, SETFA (percentage damage, five point scale)” value (Setaria faberi (SETFA) [12]) was 2 (2=20-39%).
